Reference: PubChem BioAssay (NCI)
Where “and” joins values, the source holds several entries; their conditions need not be identical. Equal entries are not always repeated.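 Dose response: 5 concentrations. Exposure: 48 h. Format: 96-well plates. Endpoint: linear interpolation; highest concentration if not reached. GI50 marks 50% less growth. TGI denotes the concentration required for complete inhibition of growth.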

Key:
Assay in all cases: NCI tumour cell line growth inhibition, 48 h
CCRF-CEM leukemia = tested on: CCRF-CEM leukemia
HS 578T breast = tested on: HS 578T breast
K-562 leukemia = tested on: K-562 leukemia
NCI/ADR-RES ovarian = tested on: NCI/ADR-RES ovarian
OVCAR-4 ovarian = tested on: OVCAR-4 ovarian
OVCAR-8 ovarian = tested on: OVCAR-8 ovarian
RXF 393 renal = tested on: RXF 393 renal
SNB-75 CNS = tested on: SNB-75 CNS
U251 CNS = tested on: U251 CNS
UO-31 renal = tested on: UO-31 renal

Row | SMILES | GI50 (CCRF-CEM leukemia) | GI50 (HS 578T breast) | TGI (HS 578T breast) | GI50 (K-562 leukemia) | TGI (K-562 leukemia) | GI50 (NCI/ADR-RES ovarian) | TGI (NCI/ADR-RES ovarian) | GI50 (OVCAR-4 ovarian) | TGI (OVCAR-4 ovarian) | GI50 (OVCAR-8 ovarian) | TGI (OVCAR-8 ovarian) | GI50 (RXF 393 renal) | TGI (RXF 393 renal) | GI50 (SNB-75 CNS) | TGI (SNB-75 CNS) | GI50 (U251 CNS) | TGI (U251 CNS) | GI50 (UO-31 renal) | TGI (UO-31 renal) | TGI (CCRF-CEM leukemia)
1 | O=C1C(Cl)=C(Nc2cccc(C(F)(F)F)c2)C(=O)N1Cc1ccccc1Cl | 1.23 µM | 8.34 µM | 43.5 µM | 4.36 µM | 26.5 µM | 10.1 µM | 26.8 µM | 6.58 µM | 26.5 µM | 2.71 µM | 20.9 µM | 1.12 µM | 10.4 µM | 0.996 µM | 9.55 µM | 2.1 µM | 13.8 µM | 5.01 µM | > 43.6 µM | –
2 | CCCC[P+](c1ccccc1)(c1ccccc1)c1ccccc1 | 1.72 µM | 3.38 µM | 20.7 µM | 0.577 µM | > 100 µM | > 100 µM | > 100 µM | 2.43 µM | > 100 µM | 2.68 µM | > 100 µM | 18.5 µM | > 100 µM | 4.95 µM | > 100 µM | 2.34 µM | > 100 µM | 24.2 µM | > 100 µM | > 100 µM
3 | CCCCCC(=O)OCC(=O)O[C@@H]1C[C@]2(C(C)C)O[C@@]1(C)[C@@H]1CC[C@@H](C)[C@H]1[C@@H]2OC(=O)/C=C/c1ccccc1 | > 37.6 µM | – | 0.0315 µM | > 41.3 µM | > 100 µM | 0.291 µM | > 70.6 µM | 26.5 µM | > 71.5 µM | 0.0907 µM | > 79.2 µM | 0.127 µM | > 6.51 µM | 42.4 µM | > 87.6 µM | > 53.1 µM | > 100 µM | 0.0408 µM | 0.254 µM | > 100 µM
4 | O=C(Nc1cccc2cccnc12)c1ccc(N2C(=O)[C@@H]3[C@H](C2=O)[C@@H]2C=C[C@H]3C2)cc1 | 30.1 µM | 40.8 µM | > 100 µM | 24.5 µM | > 100 µM | 17.6 µM | 81.2 µM | 3.26 µM | 48.6 µM | 26 µM | > 100 µM | 30.8 µM | > 100 µM | > 44.2 µM | > 100 µM | 16 µM | > 100 µM | 3.1 µM | > 100 µM | > 100 µM
5 | COc1cccc2c1cc([N+](=O)[O-])c1c(C(=O)O)cc3c(c12)OCO3 | 28.2 µM | 36.3 µM | > 100 µM | 46.3 µM | > 100 µM | 42.8 µM | > 100 µM | 83.4 µM | > 100 µM | – | > 100 µM | 18 µM | 40.6 µM and > 56.9 µM | 36 µM | > 100 µM | 22.9 µM | > 100 µM | 26.2 µM | > 100 µM | > 100 µM
6 | O=C(N=Nc1c(O)[nH]c2c(Cl)cc(Cl)cc12)c1ccncc1 | – | – | > 100 µM | – | 99.5 µM | – | 69.4 µM | – | 57.2 µM | – | 67.8 µM | – | 61.4 µM | – | 95.2 µM | – | 41.6 µM | – | > 100 µM | > 100 µM
7 | CCCC(=O)NC(c1ccc2c(c1)OCO2)c1ccc2cccnc2c1O (configuration not stated) | 0.46 µM | 5.76 µM | 78.8 µM | 0.976 µM | > 100 µM | 0.443 µM | 16.6 µM | 0.375 µM | 6.02 µM | 1.48 µM | > 100 µM | 1.47 µM | 7.54 µM | 2.18 µM | 73 µM | 1.15 µM | > 100 µM | 0.557 µM | 18.4 µM | > 100 µM
8 | COc1ccc2[nH]c(-c3cccc(N(C)C)c3)cc(=O)c2c1 | – | – | 0.509 µM | 0.321 µM | 17.3 µM | 0.487 µM | – | – | > 100 µM | 0.433 µM | 2.48 µM and 5.56 µM | – | 0.351 µM | 0.371 µM | 50.2 µM | 0.463 µM | – | 0.633 µM | > 100 µM | 0.907 µM
9 | O=C1C=CN(C2OC(CO)C(O)C2O)C(=O)C1 (configuration not stated) | > 625 µM | – | > 747 µM | – | > 2500 µM | – | 625 µM and > 2500 µM | > 625 µM and 953 µM | > 2500 µM | 72.6 µM and 42.7 µM | 625 µM and > 2500 µM | 514 µM | 625 µM and > 2500 µM | – | > 2500 µM | 298 µM and 289 µM | 625 µM and > 2500 µM | 26.7 µM | 625 µM and > 2500 µM | > 1710 µM
10 | O=C(O)c1ccc(-c2ccc(C(=O)O)cc2I)c(I)c1 | > 100 µM | > 100 µM | > 100 µM | > 100 µM | > 100 µM | > 100 µM | > 100 µM | > 100 µM | > 100 µM | > 100 µM | > 100 µM | > 100 µM | > 100 µM | > 100 µM | > 100 µM | > 100 µM | > 100 µM | > 100 µM | > 100 µM | > 100 µM
11 | COC(=O)[C@@H](Cc1c[nH]c2ccccc12)NC(=O)/C=C/c1ccccc1 | 3.45 µM | 1.81 µM | 7.88 µM | 2.74 µM | > 100 µM | 2.53 µM | > 100 µM | 5.71 µM | > 100 µM | 3.6 µM | > 100 µM | 1.5 µM | 4.58 µM | 2.42 µM | > 100 µM | 3.16 µM | 41.6 µM | 3.68 µM | > 100 µM | > 100 µM
12 | Oc1ccc(/C=N/Nc2nc3ccccc3s2)c(O)c1 | 0.717 µM | 2.91 µM | > 100 µM | 2.59 µM | > 100 µM | 1.22 µM | > 100 µM | 0.381 µM | 2.93 µM | 1.65 µM | > 100 µM | 3.36 µM | > 100 µM | 1.51 µM | 9.96 µM | 1.72 µM | > 100 µM | 0.341 µM | 4.23 µM | > 100 µM
